We go through six compounds from patent US11338007B2, “Combination formulation of three antiviral compounds” (priority 2016, dated 2022).

As a reminder, the Cmax is the peak of the concentration-time curve.

Data set [1] can be described thus: Relative bioavailability of voxilaprevir amorphous free acid tablets vs Form VI tablets, fasted and fed, healthy subjects (Table 3). The format is in vivo, human. From the text:
Accordingly, a spray dried dispersion of voxilaprevir in the amorphous free acid form was selected for incorporation into the tablet formulation.

A short description of data set [2]: Physical stability of tablets spiked with crystalline voxilaprevir Form VIII and Form X (Tables 22, 23). The following applies: in tablets in the presence of pre-existing crystalline voxilaprevir. It counts as physicochemical. On the procedure: For each of the impact studies, the sofosbuvir/velpatasvir SSD/voxilaprevir SSD tablets were packaged in a designated commercial packaging configuration (28-count, 100 mL HPDE bottle, coil, 1 g desiccant), and stored for 12 weeks at 25° C./60% RH and 40° C./75% RH. Tablets were also packaged in open containers (28-count, 100 mL HPDE bottle without cap) and stored for 4 weeks at 40° C./75% RH and for 1 week at 50° C./92% RH.
The impact of crystalline voxilaprevir Form VIII and Form X seeds on the physical stability and dissolution of sofosbuvir/velpatasvir SSD/voxilaprevir SSD tablets was evaluated (Tables 22 and 23). As described in Table 22, sofosbuvir/velpatasvir SSD/voxilaprevir SSD tablets Lots A and B were spiked with 5 and 10% w/w Form VIII (% w/w with respect to total voxilaprevir), respectively. Sofosbuvir/velpatasvir SSD/voxilaprevir SSD tablets Lots C and D, as described in Table 23, were spiked with 10 and 20% w/w Form X (% w/w with respect to total voxilaprevir), respectively.

Data set [3] is described as follows: Solid-state properties and open-container stability of sofosbuvir Forms 6 and 7. It counts as physicochemical. An excerpt: In some embodiments, and the Examples presented herein, the tablet formulation includes sofosbuvir having Form 6 and, optionally, a trace amount of Form 7. […] Form 6 of sofosbuvir is the thermodynamically stable form and remains physically stable when suspended in water. Form 7 of Sofosbuvir, while physically stable in water for short periods of time, can be converted to Form 6 with prolonged stirring.

The nature of data set [4]: Aqueous solubility of voxilaprevir Form VIII relative to Form VI. It counts as physicochemical.
Data set [5] in a line: Food effect (high calorie/high-fat meals) on pharmacokinetics in human subjects (Table 28). The format is in vivo. The conditions noted are these: tablets 400/100/100 mg; high calorie/high-fat meal. The procedure: The effect of food (high calorie/high-fat meals) on the pharmacokinetics of sofosbuvir/velpatasvir SSD/voxilaprevir SSD tablets (400/100/100 mg). […] As a result, sofosbuvir/velpatasvir SSD/voxilaprevir SSD tablets are administered with food.

The mark [6] stands for this setting: 100 mg tablets, healthy subjects.

As for `CC[C@@H]1[C@@H]2CN(C(=O)[C@H](C(C)(C)C)NC(=O)O[C@@H]3C[C@H]3CCCCC(F)(F)c3nc4ccc(OC)cc4nc3O2)[C@@H]1C(=O)N[C@]1(C(=O)NS(=O)(=O)C2(C)CC2)C[C@H]1C(F)F` [Amorphous Free Acid, voxilaprevir], in data set [1] (setting [6]), the “higher Cmax compared to Form VI tablets (2×50 mg)” value is given as approximately 43% and the “higher exposure (AUC) compared to Form VI tablets (2×50 mg)” value is “approximately 9%”. Moreover, the peak concentration (Cmax) in data set [1] (single dose 100 mg, healthy subjects, fed (with moderate food)) is 44.2 ng/mL. Also, in data set [1] (single dose, fasted), the “Geometric Least Square Ratio Amorphous Free Acid/Form VI GMR, AUCinf” value is 1.09 and the “Geometric Least Square Ratio Amorphous Free Acid/Form VI GMR, Cmax” value is 1.43. In addition, the tendency to crystallize result in data set [2] is given as “no tendency to crystallize”.
Take `CC(C)OC(=O)[C@H](C)N[P@](=O)(OC[C@H]1O[C@@H](n2ccc(=O)[nH]c2=O)[C@](C)(F)[C@@H]1O)Oc1ccccc1` [Form 6, sofosbuvir]: in data set [3], the hygroscopicity result was “non-hygroscopic” and the photosensitivity result is on record as “not photosensitive”. In addition, the “physical and chemical stability” value in data set [3] (open container, 1 month at 40° C./75% RH) was “physically and chemically stable”.
On to `CC[C@@H]1[C@@H]2CN(C(=O)[C@H](C(C)(C)C)NC(=O)O[C@@H]3C[C@H]3CCCCC(F)(F)c3nc4ccc(OC)cc4nc3O2)[C@@H]1C(=O)N[C@]1(C(=O)NS(=O)(=O)C2(C)CC2)C[C@H]1C(F)F` [Form VIII, voxilaprevir], for which, in data set [4], the “aqueous solubility, less than that of crystalline Form VI” value is “approximately 50%”.
With `C[C@@]1(F)[C@H](O)[C@@H](CO)O[C@H]1n1ccc(=O)[nH]c1=O` [Formulation M1], the “effect of food on plasma exposure” value in data set [5] is reported as “does not substantially alter”.
Regarding `C[C@H](NP(=O)(O)OC[C@H]1OC(n2ccc(=O)[nH]c2=O)[C@](C)(F)[C@@H]1O)C(=O)O` (stereo partly shown) [Formulation M2], the “effect of food on plasma exposure” value in data set [5] is listed as “does not substantially alter”.
Take `COC[C@H]1C[C@@H](c2ncc(-c3ccc4c(c3)COc3cc5c(ccc6nc([C@@H]7CC[C@H](C)N7C(=O)[C@@H](NC(=O)OC)C(C)C)[nH]c65)cc3-4)[nH]2)N(C(=O)[C@H](NC(=O)OC)c2ccccc2)C1` [amorphous velpatasvir free base, velpatasvir]: the tendency to crystallize entry in data set [2] is on record as “no tendency to crystallize”.
